From paper PMC10518717, “High-Throughput Screening and Proteomic Characterization of Compounds Targeting Myeloid-Derived Suppressor Cells” (Molecular & Cellular Proteomics : MCP, 2023) come the findings set out here.

The test system of this assay is NUP-MDSC. Briefly: Secondary mouse MDSC screen (dose-dependent; IFNγ secretion and T cell proliferation). The class given is cell-based. The following applies: for EC50: Mus musculus, NUP-MDSC/CD8+ T cell coculture; for activity in the NUP-MDSC assay (proliferation and INFγ secretion of mouse CD8+ T cells): dose-dependent confirmation screen. On the procedure:
Compound source plates (REMP-PP#180030) were pre-prepared by adding 500 nl compound solution (5 mmol/l starting concentration) and 11.5 μl Hepes (20 mmol/l) buffer to achieve a final ready to screen concentration of 0.2 mmol/l. Cocultured cell assay plates were prepared by dispensing 20 μl of differentiated MDSC cells (12,500 cells/cavity) and 20 μl of CD8+ T-cells with a MultidropCombi (12,500 cells/cavity). In the next step, 2 μl of pre-prepared compound solution was transferred via BC i5 to the cell plate followed by 3days incubation at 37 °C and 5% CO2. Afterward, the supernatant in cell plates were homogenized via orbital shaking at 2000 rpm for 20s and centrifugated with 1650 rpm for 30 s. On a BC i5 pipetting robot, 2 μl supernatant were transferred to a pre-filled (30 μl PBS) assay plate followed by centrifugation and addition of 8 μl IFNγ HTRF detection kit, followed by orbital mixing at 2000 rpm for 20s and an incubation step for 3 days at 37 °C and 5% CO2. Assay plate was analyzed on an PE Envision. Cell plates were centrifuged in parallel with 300g for 60 s and orbital mixed at 2000 rpm for 20 s followed by proliferation analysis via Sartorius IQue2. Effects were normalized against stimulator control mIL-2 and 0.2% dimethyl sulfoxide (DMSO) as neutral control. A hit was defined as a compound with >50% effect in at least one of the measured effects.
Compound source plates (REMP-PP#180030) for dose-dependent secondary screens were pre-prepared by adding […] compound solution (1.0E + 01 mmol/l, 3.2E + 00 mmol/l, 1.0E + 00 mmol/l, 3.2E-01 mmol/l, 1.0E-01 mmol/l, 3.2E-02 mmol/l, 1.0E-02 mmol/l, 3.2E-03 mmol/l, 1.0E-03 mmol/l, 3.2E-04 mmol/l; starting concentration) and 12 μl Hepes (20 mM) buffer to achieve a final ready to screen concentration of 4.0E-02 mmol/l, 1.3E-02 mmol/l, 4.0E-03 mmol/l, 1.3E-03 mmol/l, 4.0E-04 mmol/l, 1.3E-04 mmol/l, 4.0E-05 mmol/l, 1.3E-05 mmol/l, 4.0E-06 mmol/l, and 1.3E-06 mmol/l. All other steps are identical to the described workflow under “Primary mouse MDSC screen”.
After confirming the physiological and pharmacological suitability of the NUP-MDSC model, we developed a high-throughput screen for the identification of potential MDSC modulators (Fig. 4A and supplemental Fig. S3). To accomplish this, mouse NUP-MDSC were generated as described before, co-cultured with freshly isolated mouse CD8+ T cells, which were activated with anti-CD3/anti-CD28 antibodies, and subsequently treated with compounds or DMSO vehicle (supplemental Fig. S4A). After 72 h, T cell activity was assessed by recording T cell proliferation and IFN-γ secretion. […] Compounds were declared hits if reversing the suppression effect of NUP-MDSC on T cells with ≥50% in either readout resulting in 392 hit compounds (Fig. 4B). […]

Where two headings read alike, the source gives them in different places.

In the case of `CCOC(=O)c1nnn(-c2nn3nnnc3c3ccccc23)c1C` [compound 2], the “activity in the NUP-MDSC assay (proliferation and INFγ secretion of mouse CD8+ T cells)” value was “rescued the proliferation and INFγ secretion”. For the same compound, the EC50 (Fig. 4D, read-out: T cell proliferation EC50) came to 6.5 µM. Where the note is “read-out: EC50, based on INFγ secretion of secondary mouse screen”, the EC50 was 2.6 µM.

`c1ccc2c(c1)c(-n1ccnc1)nn1nnnc21` [compound 3]: the “activity in the NUP-MDSC assay (proliferation and INFγ secretion of mouse CD8+ T cells)” value is “inactive”.
